According to the supplement of paper PMC10307832:

Tests used:
Assay in all cases: relative viability (nuclei count vs DMSO), 5 days (fraction); higher = more cells survive
DM3189 = compound: C1CN(CCN1)C2=CC=C(C=C2)C3=CN4C(=C(C=N4)C5=CC=NC6=CC=CC=C56)N=C3 [DM3189]
How it was run: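 A plate was accepted only when its control CV was below 25% and the cells had doubled at least once. Viability is defined from nuclear counts as treated wells divided by vehicle wells, with the median taken across plates. That median covers lung cancer cell lines grown in 1536-well plates, dosed by pinning at five √10-spaced library-drug concentrations, and counted in MetaXpress from 4× Hoechst images after 5 days.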

DM3189 + Trametinib = compound: C1CN(CCN1)C2=CC=C(C=C2)C3=CN4C(=C(C=N4)C5=CC=NC6=CC=CC=C56)N=C3 [DM3189] + CC(=O)Nc1cccc(-n2c(=O)n(C3CC3)c(=O)c3c(Nc4ccc(I)cc4F)n(C)c(=O)c(C)c32)c1 [Trametinib] (partner 0.02 µM)
How it was run: (§1)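 Nuclei were stained with Hoechst during a one-step fixation (final 0.05% Triton X-100, 1% formaldehyde, 1 ug/ml Hoechst) carried out 5 days after dosing, then counted on 4× images. The cells, lung cancer lines in 1536-well plates, had been dosed by pin tool the day after seeding with one drug alone or a fixed anchor-drug dose plus five library-drug doses (not always all listed) in √10 steps. Relative viability is the nuclei count in treated wells divided by that in vehicle wells, and each value is the median of duplicate plates.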

DM3189 + Palbociclib = compound: C1CN(CCN1)C2=CC=C(C=C2)C3=CN4C(=C(C=N4)C5=CC=NC6=CC=CC=C56)N=C3 [DM3189] + CC(=O)c1c(C)c2cnc(Nc3ccc(N4CCNCC4)cn3)nc2n(C2CCCC2)c1=O [Palbociclib] (partner 0.5 µM)
How it was run: as §1

DM3189 + Luminespib = compound: C1CN(CCN1)C2=CC=C(C=C2)C3=CN4C(=C(C=N4)C5=CC=NC6=CC=CC=C56)N=C3 [DM3189] + CCNC(=O)c1noc(-c2cc(C(C)C)c(O)cc2O)c1-c1ccc(CN2CCOCC2)cc1 [Luminespib] (partner 0.01 µM)
How it was run: as §1

DM3189 + Foretinib = compound: C1CN(CCN1)C2=CC=C(C=C2)C3=CN4C(=C(C=N4)C5=CC=NC6=CC=CC=C56)N=C3 [DM3189] + COc1cc2c(Oc3ccc(NC(=O)C4(C(=O)Nc5ccc(F)cc5)CC4)cc3F)ccnc2cc1OCCCN1CCOCC1 [Foretinib] (partner 0.25 µM)
How it was run: as §1

DM3189 + OSI-027 = compound: C1CN(CCN1)C2=CC=C(C=C2)C3=CN4C(=C(C=N4)C5=CC=NC6=CC=CC=C56)N=C3 [DM3189] + COc1cccc2cc(-c3nc([C@H]4CC[C@H](C(=O)O)CC4)n4ncnc(N)c34)[nH]c12 [OSI-027] (partner 0.5 µM)
How it was run: as §1

DM3189 + Tozasertib = compound: C1CN(CCN1)C2=CC=C(C=C2)C3=CN4C(=C(C=N4)C5=CC=NC6=CC=CC=C56)N=C3 [DM3189] + Cc1cc(Nc2cc(N3CCN(C)CC3)nc(Sc3ccc(NC(=O)C4CC4)cc3)n2)n[nH]1 [Tozasertib] (partner 0.1 µM)
How it was run: as §1

DM3189 + Dasatinib = compound: C1CN(CCN1)C2=CC=C(C=C2)C3=CN4C(=C(C=N4)C5=CC=NC6=CC=CC=C56)N=C3 [DM3189] + Cc1nc(Nc2ncc(C(=O)Nc3c(C)cccc3Cl)s2)cc(N2CCN(CCO)CC2)n1 [Dasatinib] (partner 0.075 µM)
How it was run: as §1

DM3189 + Phenformin = compound: C1CN(CCN1)C2=CC=C(C=C2)C3=CN4C(=C(C=N4)C5=CC=NC6=CC=CC=C56)N=C3 [DM3189] + N=C(N)NC(=N)NCCc1ccccc1 [Phenformin] (partner 250 µM)
How it was run: as §1

DM3189 + AZD7762 = compound: C1CN(CCN1)C2=CC=C(C=C2)C3=CN4C(=C(C=N4)C5=CC=NC6=CC=CC=C56)N=C3 [DM3189] + NC(=O)Nc1cc(-c2cccc(F)c2)sc1C(=O)N[C@H]1CCCNC1 [AZD7762] (partner 0.2 µM)
How it was run: as §1

DM3189 + Pemetrexed = compound: C1CN(CCN1)C2=CC=C(C=C2)C3=CN4C(=C(C=N4)C5=CC=NC6=CC=CC=C56)N=C3 [DM3189] + Nc1nc2[nH]cc(CCc3ccc(C(=O)N[C@@H](CCC(=O)O)C(=O)O)cc3)c2c(=O)[nH]1 [Pemetrexed] (partner 0.2 µM)
How it was run: as §1

DM3189 + Decitabine = compound: C1CN(CCN1)C2=CC=C(C=C2)C3=CN4C(=C(C=N4)C5=CC=NC6=CC=CC=C56)N=C3 [DM3189] + Nc1ncn([C@H]2C[C@H](O)[C@@H](CO)O2)c(=O)n1 [Decitabine] (partner 2 µM)
How it was run: as §1

DM3189 + Vorinostat = compound: C1CN(CCN1)C2=CC=C(C=C2)C3=CN4C(=C(C=N4)C5=CC=NC6=CC=CC=C56)N=C3 [DM3189] + O=C(CCCCCCC(=O)Nc1ccccc1)NO [Vorinostat] (partner 1 µM)
How it was run: as §1

DM3189 + Olaparib = compound: C1CN(CCN1)C2=CC=C(C=C2)C3=CN4C(=C(C=N4)C5=CC=NC6=CC=CC=C56)N=C3 [DM3189] + O=C(c1cc(Cc2n[nH]c(=O)c3ccccc23)ccc1F)N1CCN(C(=O)C2CC2)CC1 [Olaparib] (partner 8 µM)
How it was run: as §1

Question: Which results are given for NCI-H2342?
Answer: relative viability (DM3189; 0.08 µM): 0.988; relative viability (DM3189; 0.253 µM): 0.99; relative viability (DM3189; 0.8 µM): 0.948; relative viability (DM3189; 2.53 µM): 0.97; relative viability (DM3189 + Trametinib; first compound 0.08 µM): 0.805; relative viability (DM3189 + Trametinib; first compound 0.253 µM): 0.843; relative viability (DM3189 + Trametinib; first compound 0.8 µM): 0.844; relative viability (DM3189 + Trametinib; first compound 2.53 µM): 0.74; relative viability (DM3189 + Palbociclib; first compound 0.08 µM): 0.509; relative viability (DM3189 + Palbociclib; first compound 0.253 µM): 0.489; relative viability (DM3189 + Palbociclib; first compound 0.8 µM): 0.532; relative viability (DM3189 + Palbociclib; first compound 2.53 µM): 0.512; relative viability (DM3189 + Luminespib; first compound 0.08 µM): 0.916; relative viability (DM3189 + Luminespib; first compound 0.253 µM): 0.66; relative viability (DM3189 + Luminespib; first compound 0.8 µM): 0.845; relative viability (DM3189 + Luminespib; first compound 2.53 µM): 0.702; relative viability (DM3189 + Foretinib; first compound 0.08 µM): 1.08; relative viability (DM3189 + Foretinib; first compound 0.253 µM): 0.912; relative viability (DM3189 + Foretinib; first compound 0.8 µM): 1.08; relative viability (DM3189 + Foretinib; first compound 2.53 µM): 0.965; relative viability (DM3189 + OSI-027; first compound 0.08 µM): 0.658; relative viability (DM3189 + OSI-027; first compound 0.253 µM): 0.626; relative viability (DM3189 + OSI-027; first compound 0.8 µM): 0.622; relative viability (DM3189 + OSI-027; first compound 2.53 µM): 0.552; relative viability (DM3189 + Tozasertib; first compound 0.08 µM): 0.599; relative viability (DM3189 + Tozasertib; first compound 0.253 µM): 0.526; relative viability (DM3189 + Tozasertib; first compound 0.8 µM): 0.541; relative viability (DM3189 + Tozasertib; first compound 2.53 µM): 0.483; relative viability (DM3189 + Dasatinib; first compound 0.08 µM): 0.291; relative viability (DM3189 + Dasatinib; first compound 0.253 µM): 0.3; relative viability (DM3189 + Dasatinib; first compound 0.8 µM): 0.299; relative viability (DM3189 + Dasatinib; first compound 2.53 µM): 0.332; relative viability (DM3189 + Phenformin; first compound 0.08 µM): 0.625; relative viability (DM3189 + Phenformin; first compound 0.253 µM): 0.594; relative viability (DM3189 + Phenformin; first compound 0.8 µM): 0.595; relative viability (DM3189 + Phenformin; first compound 2.53 µM): 0.498; relative viability (DM3189 + AZD7762; first compound 0.08 µM): 0.44; relative viability (DM3189 + AZD7762; first compound 0.253 µM): 0.533; relative viability (DM3189 + AZD7762; first compound 0.8 µM): 0.54; relative viability (DM3189 + AZD7762; first compound 2.53 µM): 0.478; relative viability (DM3189 + Pemetrexed; first compound 0.08 µM): 0.954; relative viability (DM3189 + Pemetrexed; first compound 0.253 µM): 0.745; relative viability (DM3189 + Pemetrexed; first compound 0.8 µM): 0.802; relative viability (DM3189 + Pemetrexed; first compound 2.53 µM): 0.847; relative viability (DM3189 + Decitabine; first compound 0.08 µM): 0.747; relative viability (DM3189 + Decitabine; first compound 0.253 µM): 0.679; relative viability (DM3189 + Decitabine; first compound 0.8 µM): 0.718; relative viability (DM3189 + Decitabine; first compound 2.53 µM): 0.688; relative viability (DM3189 + Vorinostat; first compound 0.08 µM): 0.702; relative viability (DM3189 + Vorinostat; first compound 0.253 µM): 0.692; relative viability (DM3189 + Vorinostat; first compound 0.8 µM): 0.843; relative viability (DM3189 + Vorinostat; first compound 2.53 µM): 0.668; relative viability (DM3189 + Olaparib; first compound 0.08 µM): 0.417; relative viability (DM3189 + Olaparib; first compound 0.253 µM): 0.473; relative viability (DM3189 + Olaparib; first compound 0.8 µM): 0.477; relative viability (DM3189 + Olaparib; first compound 2.53 µM): 0.468
